Data reported in PMC6148290, “Endogenous metabolites of vitamin E limit inflammation by targeting 5-lipoxygenase” (Nature Communications, 2018).

Key:
15-LO = 15-LO product formation in A23187/AA-activated PMNL; format: cell-based, human; details: at 3 µM; mean ± s.e.m., n = 3; n.i. no inhibition
Description: Cells were washed and medium was exchanged. Freshly isolated PMNL (1 × 10^7) and stably transfected HEK-293 (1 × 10^6) cells were suspended in PBS pH 7.4 containing 1 mg/ml glucose and 1 mM CaCl2. […] A23187- and A23187/AA-treated PMNL and A23187/AA-treated HEK-293 (5-LO_wt), HEK-293 (5-LO_3W) and HEK-293 (5-LO_Arg101Asp) cells produced 135 ± 21, 636 ± 112, 300 ± 59, 133 ± 29, 55 ± 9 ng 5-LO products, respectively. PMNL synthesized 29 ± 6 ng 12-HETE and 97 ± 23 ng 15-HETE when challenged with A23187/AA. 5-LO products from monocytes were analyzed by UPLC-MS/MS.

OVA-sensitized mice = assay: Airway hyper-reactivity in OVA-sensitized mice; format: in vivo, mouse; details: 10 mg/kg i.p. at days 0 and 7; day 21
Description: BALB/c mice were sensitized to OVA, and bronchial reactivity and pulmonary LTC4 levels were measured. On days 0 and 7, α-T-13′-COOH (4a; 10 mg/kg, i.p.) or vehicle (4% DMSO in saline; 0.5 ml) were administered 30 min before injection of OVA (100 µg; Sigma Aldrich) which was adsorbed to aluminum hydroxide gel (3.3 mg; Sigma Aldrich). Mice were sacrificed on day 21, and bronchi were collected. Bronchial rings of 1–2 mm length were cut and placed in organ baths mounted to isometric force transducers (Type 7006, AD Instruments, Ugo Basile, Comerio, Italy) and connected to a Powerlab 800 (AD Instruments). Rings were initially stretched until a resting tension of 0.5 g was reached and allowed to equilibrate for at least 30 min. In each experiment, bronchial rings were challenged with carbachol (10^−6 M) until the response was reproducible. Bronchial reactivity was then assessed from a cumulative concentration–response curve to carbachol (1 × 10^−8 − 3 × 10^−5 M). To determine pulmonary LTC4 levels, lungs were isolated and homogenized in PBS pH 7.4 (100 mg tissue/ml) prior to detection of LTC4 by enzyme immunoassay (Cayman Chemicals).

5-LO = target: T1, 5-LO (Homo sapiens, UniProt P09917); assay: Activity of purified human recombinant 5-LO (cell-free); format: biochemical; design: made in house; host or cells: E. coli Bl21 (DE3)
T1 sequence (P09917 1-674): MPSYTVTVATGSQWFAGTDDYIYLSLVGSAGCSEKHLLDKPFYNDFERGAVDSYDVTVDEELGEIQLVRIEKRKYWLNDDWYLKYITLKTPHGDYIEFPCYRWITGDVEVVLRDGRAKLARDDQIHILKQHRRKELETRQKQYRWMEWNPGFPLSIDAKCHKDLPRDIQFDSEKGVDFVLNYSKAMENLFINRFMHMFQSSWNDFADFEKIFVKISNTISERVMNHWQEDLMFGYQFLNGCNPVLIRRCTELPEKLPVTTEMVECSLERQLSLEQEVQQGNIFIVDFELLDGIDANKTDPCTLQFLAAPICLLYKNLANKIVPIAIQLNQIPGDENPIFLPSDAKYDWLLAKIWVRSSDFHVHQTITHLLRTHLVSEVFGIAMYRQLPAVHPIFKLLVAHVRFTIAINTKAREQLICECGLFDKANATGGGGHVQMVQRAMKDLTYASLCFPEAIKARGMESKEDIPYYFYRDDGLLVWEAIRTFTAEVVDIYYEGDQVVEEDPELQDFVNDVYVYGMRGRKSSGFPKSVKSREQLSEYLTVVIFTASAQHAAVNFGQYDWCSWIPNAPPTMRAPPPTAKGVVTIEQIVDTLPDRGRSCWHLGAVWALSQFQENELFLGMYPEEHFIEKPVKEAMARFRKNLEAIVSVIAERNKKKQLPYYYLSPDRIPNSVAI
Description: E. coli Bl21 (DE3) cells were transformed with pT3–5LO plasmid to express human recombinant 5-LO, which was purified by affinity chromatography on an ATP-agarose column. In brief, E. coli was lysed in 50 mM triethanolamine/HCl pH 8.0 plus EDTA (5 mM), soybean trypsin inhibitor (60 µg/ml), phenylmethanesulphonyl fluoride (1 mM), dithiothreitol (1 mM), and lysozyme (1 mg/ml). After sonication (3 × 15 s), the homogenate was centrifuged at 10,000 × g for 15 min and the supernatant again at 40,000 × g for 70 min at 4 °C. The supernatant was applied to an ATP-agarose column (Sigma-Aldrich), and the column was washed with (i) PBS pH 7.4, 1 mM EDTA, (ii) 50 mM phosphate buffer pH 7.4, 0.5 M NaCl, 1 mM EDTA, and (iii) 50 mM phosphate buffer pH 7.4, 1 mM EDTA. 5-LO was eluted with 50 mM phosphate buffer pH 7.4, 1 mM EDTA, 20 mM ATP.
Purified 5-LO (0.5 µg) in PBS pH 7.4 containing EDTA (1 mM) and ATP (1 mM) was pre-incubated with LCMs for 10 min at 4 °C, pre-warmed for 30 s at 37 °C and 5-LO product formation was started by addition of AA (Sigma-Aldrich; 20 µM if not indicated otherwise) plus CaCl2 (2 mM). […] AA was added after incubation for 5 min on ice.

Cc1c(C)c2c(c(C)c1O)CC[C@@](C)(CCCC(C)CCCC(C)CCCC(C)C(=O)O)O2 (stereo partly drawn) [4a, 13-((2R)-6-hydroxy-2,5,7,8-tetramethylchroman-2-yl)-2,6,10-trimethyltridecanoic acid]
15-LO product formation/PMNL, residual activity (15-LO): 52.6 ± 20.3 % of control | OVA-induced bronchial hyper-reactivity to carbachol (OVA-sensitized mice): significantly inhibited | pulmonary LTC4 levels (OVA-sensitized mice): lowered pulmonary LTC4 to basal levels | IC50 (5-LO): 0.27 ± 0.01 µM
